These are literature values, as cited in PubChem BioAssay AID1259409 (Chemical Carcinogenesis Research Information System (CCRIS), 2018).

This series deals with rodent chemically induced tumor inhibition, incidence and multiplicity. Nature of the series: CCRIS tumor inhibitor studies. The settings on record: Promoter: NONE; for outcome: Carcinogen: OCHRATOXIN A (303-47-9), Strain/Sex: LEWIS/FEMALE.

Structures are written as SMILES.

For the compound `O=S(=O)(O)CCS`, the “tumour outcome (control, treated, inhibition, significance)” value runs as follows: (Carcinogen: 17BETA-ESTRADIOL, 50-28-2, Dose [Inhibitor]: 0, 0.05% IN DRINKING WATER 5 D/WK BEGINNING 5 D POST CARCINOGEN DOSE (STUDY DURATION: 7.5 MO), Route [Inhibitor]: ORAL, Species: HAMSTER, Strain/Sex: SYRIAN/MALE, Target Tissue: Type of Lesion: KIDNEY: TUMOR, Dose [Carcinogen]: 25 MG PELLET REPLACED WITH A SECOND PELLET AFTER 4 MO) 13/13 (100%), 15/19 (79%), 21%, not calculated; (Carcinogen: CYCLOPHOSPHAMIDE, 50-18-0, Dose [Inhibitor]: 5 MG/KG BW IN DRINKING WATER 5/WK FOR 20 MO SIMULTANEOUSLY WITH CARCINOGEN TREATMENT (STUDY DURATION: 20 MO), Route [Inhibitor]: ORAL, Species: RAT, Strain/Sex: SPRAGUE-DAWLEY/MALE, Target Tissue: Type of Lesion: NERVOUS TISSUE: NEOPLASM, Dose [Carcinogen]: 2.5 MG/KG BW IN DRINKING WATER 5/WK FOR 20) 14%, 19%, -36%, not calculated; (Carcinogen: CYCLOPHOSPHAMIDE, 50-18-0, Dose [Inhibitor]: 5 MG/KG BW IN DRINKING WATER 5/WK FOR 20 MO SIMULTANEOUSLY WITH CARCINOGEN TREATMENT (STUDY DURATION: 20 MO), Route [Inhibitor]: ORAL, Species: RAT, Strain/Sex: SPRAGUE-DAWLEY/MALE, Target Tissue: Type of Lesion: URINARY BLADDER: TUMOR, Dose [Carcinogen]: 2.5 MG/KG BW IN DRINKING WATER 5/WK FOR 20 MO) 30%, 22%, 27%, p>0.003*; (Carcinogen: CYCLOPHOSPHAMIDE, 50-18-0, Dose [Inhibitor]: 5 MG/KG BW IN DRINKING WATER 5/WK FOR DURATION OF STUDY SIMULTANEOUSLY WITH CARCINOGEN TREATMENT (STUDY DURATION: LIFE), Route [Inhibitor]: ORAL, Species: RAT, Strain/Sex: SPRAGUE-DAWLEY/MALE, Target Tissue: Type of Lesion: URINARY BLADDER: PAPILLOMA, CARCINOMA, Dose [Carcinogen]: 2.5 MG/KG BW IN DRINKING WATER 5/WK FOR DURATION OF STUDY) 32/100 (32%), 12/50 (24%), 25%, not calculated; (Carcinogen: CYCLOPHOSPHAMIDE, 50-18-0, Dose [Inhibitor]: 15 MG/KG BW IN DRINKING WATER 5/WK FOR 20 MO SIMULTANEOUSLY WITH CARCINOGEN TREATMENT (STUDY DURATION: 20 MO), Route [Inhibitor]: ORAL, Species: RAT, Strain/Sex: SPRAGUE-DAWLEY/MALE, Target Tissue: Type of Lesion: NERVOUS TISSUE: NEOPLASM, Dose [Carcinogen]: 2.5 MG/KG BW IN DRINKING WATER 5/WK FOR 20 MO) 14%, 24%, -71%, not calculated; (Carcinogen: CYCLOPHOSPHAMIDE, 50-18-0, Dose [Inhibitor]: 15 MG/KG BW IN DRINKING WATER 5/WK FOR 20 MO SIMULTANEOUSLY WITH CARCINOGEN TREATMENT (STUDY DURATION: 20 MO), Route [Inhibitor]: ORAL, Species: RAT, Strain/Sex: SPRAGUE-DAWLEY/MALE, Target Tissue: Type of Lesion: URINARY BLADDER: TUMOR, Dose [Carcinogen]: 2.5 MG/KG BW IN DRINKING WATER 5/WK FOR 20 MO) 30%, 7%, 77%, p>0.003*. The “tumour outcome (control, treated, inhibition, significance)” value reads like this: (Carcinogen: CYCLOPHOSPHAMIDE, 50-18-0, Dose [Inhibitor]: 15 MG/KG BW IN DRINKING WATER 5/WK FOR DURATION OF STUDY SIMULTANEOUSLY WITH CARCINOGEN TREATMENT (STUDY DURATION: LIFE), Route [Inhibitor]: ORAL, Species: RAT, Strain/Sex: SPRAGUE-DAWLEY/MALE, Target Tissue: Type of Lesion: URINARY BLADDER: PAPILLOMA, CARCINOMA, Dose [Carcinogen]: 2.5 MG/KG BW IN DRINKING WATER 5/WK FOR DURATION OF STUDY) 32/100 (32%), 1/50 (2%), 94%, not calculated; (Carcinogen: N-BUTYL-N(4-HYDROXYBUTYL)NITROSAMINE (3817-11-6), Dose [Inhibitor]: 0.05% IN DRINKING WATER FOR 15 WK (STUDY DURATION: 15 WK), Route [Inhibitor]: ORAL, Species: RAT, Strain/Sex: WISTAR/MALE, Target Tissue: Type of Lesion: URINARY BLADDER: PAPILLOMA, Dose [Carcinogen]: 0.025% IN DRINKING WATER FOR 15 WK) 38/40 (95%), 18/30 (60%), 37%, p< 0.01; (Carcinogen: N-BUTYL-N(4-HYDROXYBUTYL)NITROSAMINE (3817-11-6), Dose [Inhibitor]: 0.05% IN DRINKING WATER FOR 15 WK (STUDY DURATION: 15 WK), Route [Inhibitor]: ORAL, Species: RAT, Strain/Sex: WISTAR/MALE, Target Tissue: Type of Lesion: URINARY BLADDER: TRANSITIONAL CELL CARCINOMA, Dose [Carcinogen]: 0.025% IN DRINKING WATER FOR 15 WK) 4/40 (10%), 1/30 (3%), 70%, not significant; (Carcinogen: N-BUTYL-N-(4-HYDROXYBUTYL)NITROSAMINE, 3817-11-6, Dose [Inhibitor]: 350 MG/KG IN DRINKING WATER 5/WK FOR 39 WK SIMULTANEOUSLY WITH CARCINOGEN TREATMENT FOLLOWED BY OBSERVATION FOR LIFE (ST, Route [Inhibitor]: ORAL, Species: RAT, Strain/Sex: SPRAGUE-DAWLEY/MALE, Target Tissue: Type of Lesion: URINARY BLADDER: PAPILLOMATOUS CARCINOMA, TRANSITIONAL CELL CARCINOMA, Dose [Carcinogen]: 70 MG/KG 2/WK FOR 39 WK SIMULTANEOUSLY WITH AGENT TREATMENT) 96%, 91%, 5%, not significant; (Carcinogen: OCHRATOXIN A, 303-47-9, Dose [Inhibitor]: 1 G/L IN DRINKING WATER FOR LIFETIME (STUDY DURATION: LIFETIME), Route [Inhibitor]: GAVAGE, Species: RAT, Strain/Sex: DA/FEMALE, Target Tissue: Type of Lesion: URINARY BLADDER: TRANSITIONAL CELL PAPILLOMA, Dose [Carcinogen]: 0.4 MG/KG BW 3X/WK FOR LIFETIME) 2/40 (6%), 0/40 (0%), 100%, not significant; (Carcinogen: OCHRATOXIN A, 303-47-9, Dose [Inhibitor]: 1 G/L IN DRINKING WATER FOR LIFETIME (STUDY DURATION: LIFETIME), Route [Inhibitor]: GAVAGE, Species: RAT, Strain/Sex: DA/MALE, Target Tissue: Type of Lesion: URINARY BLADDER: TRANSITIONAL CELL CARCINOMA, Dose [Carcinogen]: 0.4 MG/KG BW 3X/WK FOR LIFETIME) 2/20 (11%), 0/20 (0%), 100%, not significant. For the same compound, the outcome (Dose [Inhibitor]: 1 G/L IN DRINKING WATER FOR LIFETIME (STUDY DURATION: LIFETIME), Route [Inhibitor]: GAVAGE, Species: RAT, Target Tissue: Type of Lesion: URINARY BLADDER: TRANSITIONAL CELL CARCINOMA, Dose [Carcinogen]: 0.4 MG/KG BW 3X/WK FOR LIFETIME) is recorded as 0/20 (0%), 0/20 (0%), 0%, not significant and the outcome (Dose [Inhibitor]: 1 G/L IN DRINKING WATER FOR LIFETIME (STUDY DURATION: LIFETIME), Route [Inhibitor]: GAVAGE, Species: RAT, Target Tissue: Type of Lesion: URINARY BLADDER: TRANSITIONAL CELL PAPILLOMA, Dose [Carcinogen]: 0.4 MG/KG BW 3X/WK FOR LIFETIME) is given as 0/20 (0%), 0/20 (0%), 0%, not significant.
